Test results reported in patent publication US9777001B2 (priority 2014, dated 2017).
Where a name gives a salt, the structure may show the parent alone.

Target: human plasma kallikrein (Homo sapiens, UniProt P03952)
Assay: biochemical
Conditions: purified human plasma kallikrein, substrate S-2302, sodium phosphate buffer pH 7.5

Sequence of human plasma kallikrein (P03952 391-638 limits assumed): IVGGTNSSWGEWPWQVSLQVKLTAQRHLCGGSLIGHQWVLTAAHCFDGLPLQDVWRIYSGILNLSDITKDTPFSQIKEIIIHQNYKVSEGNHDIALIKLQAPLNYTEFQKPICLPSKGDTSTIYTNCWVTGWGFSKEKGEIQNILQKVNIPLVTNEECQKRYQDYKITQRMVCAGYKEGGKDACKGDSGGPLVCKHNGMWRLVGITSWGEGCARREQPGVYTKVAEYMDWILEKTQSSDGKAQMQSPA
Sequence of human plasma kallikrein (P03952 20-390 partner limits assumed): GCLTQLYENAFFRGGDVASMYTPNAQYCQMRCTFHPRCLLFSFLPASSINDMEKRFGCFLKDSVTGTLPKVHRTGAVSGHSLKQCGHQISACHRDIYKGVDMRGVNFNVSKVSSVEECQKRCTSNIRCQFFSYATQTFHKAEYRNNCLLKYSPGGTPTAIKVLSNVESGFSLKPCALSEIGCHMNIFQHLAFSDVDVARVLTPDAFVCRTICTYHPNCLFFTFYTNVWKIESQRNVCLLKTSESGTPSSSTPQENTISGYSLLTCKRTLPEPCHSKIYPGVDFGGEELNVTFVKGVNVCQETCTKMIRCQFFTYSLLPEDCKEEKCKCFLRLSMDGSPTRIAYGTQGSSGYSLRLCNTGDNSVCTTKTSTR

| Compound | Ki |
| --- | --- |
| CCOc1cn(-c2ccc(Cl)cc2-c2cc(=O)n([C@H]3CCC[C@@H](C)C(=O)Nc4ccc(F)cc4-c4ccnc3c4)cn2)nn1 [Example 144, (10R,14S)-14-{4-[5-chloro-2-(4-ethoxy-1H-1,2,3-triazol-1-yl)phenyl]-6-oxo-1,6-dihydropyrimidin-1-yl}-4-fluoro-10-methyl-8,16-diazatricyclo[13.3.1.0^2,7]nonadeca-1(19),2(7),3,5,15,17-hexaen-9-one trifluoroacetate] | 210 nM |
| C[C@@H]1CCC[C@H](n2cnc(-c3cc(Cl)ccc3C(F)(F)F)cc2=O)c2cc(ccn2)-c2cc(F)ccc2NC1=O [Example 141, (10R,14S)-14-{4-[5-chloro-2-(trifluoromethyl)phenyl]-6-oxo-1,6dihydropyrimidin-1-yl}-4-fluoro-10-methyl-8,16-diazatricyclo[13.3.1.0^2,7]nonadeca-1(19),2(7),3,5,15,17-hexaen-9-one trifluoroacetate] | 580 nM |
| C[C@@H]1CCC[C@H](n2cnc(-c3cc(Cl)ccc3-n3cc(Cl)nn3)cc2=O)c2cc(ccn2)-c2ccc(OCC(=O)O)cc2NC1=O [Example 99, 2-{[(10R,14S)-14-{4-[5-chloro-2-(4-chloro-1H-1,2,3-triazol-1-yl)phenyl]-6-oxo-1,6-dihydropyrimidin-1-yl}-10-methyl-9-oxo-8,16-diazatricyclo[13.3.1.0^2,7]nonadeca-1(19),2(7),3,5,15,17-hexaen-5-yl]oxy}acetic acid] | 4900 nM |
| C[C@@H]1CCC[C@H](n2cnc(-c3cc(Cl)ccc3-c3cnn(C(F)F)c3)cc2=O)c2cc(ccn2)-c2cc(F)ccc2NC1=O [Example 124, (10R,14S)-14-(4-{5-chloro-2-[1-(difluoromethyl)-1H-pyrazol-4-yl]phenyl}-6-oxo-1,6-dihydropyrimidin-1-yl)-4-fluoro-10-methyl-8,16-diazatricyclo [13.3.1.0^2,7]nonadeca-1(19),2(7),3,5,15,17-hexaen-9-one trifluoroacetate] | 780 nM |
| CCOc1cn(-c2ccc(Cl)c(F)c2-c2cc(=O)n([C@H]3CCC[C@@H](C)C(=O)Nc4ccc(F)cc4-c4ccnc3c4)cn2)nn1 [Example 136, (10R,14S)-14-{4-[3-chloro-6-(4-ethoxy-1H-1,2,3-triazol-1-yl)-2-fluorophenyl]-6-oxo-1,6-dihydropyrimidin-1-yl}-4-fluoro-10-methyl-8,16-diazatricyclo [13.3.1.0^2,7]nonadeca-1(19),2(7),3,5,15,17-hexaen-9-one trifluoroacetate] | 76 nM |

The next lines start with the values.

| Ki | Compound |
| --- | --- |
| 15 nM | C[C@@H]1CCC[C@H](n2cnc(-c3cc(Cl)ccc3-n3cc(C(F)(F)F)nn3)cc2=O)c2ccnc(c2)-c2ccc(C#N)cc2NC1=O [Example 113, (10R,14S)-14-(4-{5-chloro-2-[4-(trifluoromethyl)-1H-1,2,3-triazol-1-yl]phenyl}-6-oxo-1,6-dihydropyrimidin-1-yl)-10-methyl-9-oxo-8,18-diazatricyclo [13.3.1.0^2,7]nonadeca-1(19),2(7),3,5,15,17-hexaene-5-carbonitrile] |
| 32 nM | C[C@@H]1CCC[C@H](n2cnc(-c3cc(Cl)ccc3-n3cc(C(F)(F)F)nn3)cc2=O)c2cncc(c2)-c2cc(F)ccc2NC1=O [Example 103, (10R,14S)-14-(4-{5-chloro-2-[4-(trifluoromethyl)-1H-1,2,3-triazol-1-yl]phenyl}-6-oxo-1,6-dihydropyrimidin-1-yl)-4-fluoro-10-methyl-8,17-diazatricyclo[13.3.1.0^2,7]nonadeca-1(19),2(7),3,5,15,17-hexaen-9-one] |
| 78 nM | COC(=O)Nc1ccc2c(c1)NC(=O)[C@H](C)CCC[C@H](n1cnc(-c3cccc(Cl)c3F)cc1=O)c1cc-2ccn1 [Example 45, methyl N-[(10R,14S)-14-[4-(3-chloro-2-fluorophenyl)-6-oxo-1,6-dihydropyrimidin-1-yl]-10-methyl-9-oxo-8,16-diazatricyclo[13.3.1.0^2,7]nonadeca-1(18),2,4,6,15(19),16-hexaen-5-yl]carbamate trifluoroacetate] |
